In US10449269B2, “Particle conjugated prosthetic patches and methods of making and using thereof” (Yale University, priority 2016, dated 2019):

Experiments:
[1] = TGF-β1 release from NP patches in PBS (Micro BCA); assay type: physicochemical; conditions: in vitro
Experimental: Pericardial patches were covalently modified using NP loaded with TGF-β1. TGF-β1 (4 μg) was dissolved in PBS (200 μL) and added to chloroform (2 mL) containing carboxylated poly(lactic-coglycolic acid) (PLGA) (100 mg). The mixture was then added drop-wise to 5% polyvinyl alcohol (PVA) (4 mL) and sonicated three times to form NP. The NP were dispersed in 0.2% PVA solution (200 mL) to evaporate the solvent for 2 h while stirring (40 ng TGF-β1/mg NP, […]). Patches (7 mm×5 mm) were conjugated with the NP using ethyl (dimethylaminopropyl) carbodiimide/N-hydroxysuccinimide (EDC/NHS) chemistry, as discussed above. EDC (20 μmol/mL) and NHS (10 μmol/mL) were dissolved in MES solution (0.1 M; pH 5) for the conjugation. Carboxyl groups on the NP were activated using EDC (1 mL) for 30 min and substituted with NHS by adding NHS (1 mL) for 30 min. The solution pH was raised from 5 to 8 using NaOH (1 M). Patches were then placed into the activated NP suspension and incubated at 37° C. overnight. To assess TGF-β1 release from NP patches in vitro, the patches were incubated in PBS at 37° C. The supernatant was collected at the desired time points and used to quantify TGF-β1 using a Micro BCA Protein Assay Kit (Thermo Fisher Scientific).

[2] = test system: TGF-β1-induced collagen Iα1 mRNA; conditions: cited from earlier work
[3] = test system: TGF-β1-induced PAI-1 mRNA; conditions: cited from earlier work
[4] = test system: TGF-β1-induced fibronectin mRNA; conditions: cited from earlier work
[5] = test system: TGF-β1-induced fibronectin protein; conditions: cited from earlier work
[6] = biological target: T1, nodal type I receptor ALK7 (Homo sapiens, UniProt Q8NER5); conditions: cited from earlier work
T1 sequence (Q8NER5 21-493): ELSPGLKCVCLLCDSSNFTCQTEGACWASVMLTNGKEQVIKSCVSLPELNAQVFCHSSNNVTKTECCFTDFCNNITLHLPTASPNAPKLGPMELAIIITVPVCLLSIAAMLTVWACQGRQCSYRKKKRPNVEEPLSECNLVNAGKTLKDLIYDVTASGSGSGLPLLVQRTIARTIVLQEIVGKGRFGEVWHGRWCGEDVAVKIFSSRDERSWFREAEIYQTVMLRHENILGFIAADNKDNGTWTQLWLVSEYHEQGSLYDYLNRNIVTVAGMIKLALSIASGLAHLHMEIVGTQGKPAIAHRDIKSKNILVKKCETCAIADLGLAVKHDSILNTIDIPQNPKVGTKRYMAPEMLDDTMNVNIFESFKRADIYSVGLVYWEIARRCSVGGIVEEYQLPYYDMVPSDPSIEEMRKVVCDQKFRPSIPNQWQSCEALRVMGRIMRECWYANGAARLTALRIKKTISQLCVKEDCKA

For “TGF β1: polypeptide member of the transforming growth factor beta superfamily of cytokines”, the “duration of sustained release of TGF-β1” value [1] was 2-3 weeks, the “period in which cumulative release was highest (first days)” value [1] was 5 days and the “time until which release slowly decreased” value [1] was 21 days.
In the case of NC(=O)c1ccc(-c2nc(-c3ccc4c(c3)OCO4)c(-c3ccccn3)[nH]2)cc1 [SB 431542], the IC50 [2] is given as 60 nM, the IC50 [3] is given as 50 nM and the IC50 [4] is given as 62 nM. For the same compound, the IC50 [5] was 22 nM and the “inhibition of ALK7” value [6] was “inhibits”.
